Results taken from ChEMBL document CHEMBL4651402, “Screening of ~5500 FDA-approved drugs and clinical candidates for anti-SARS-CoV-2 activity” (2021).

Test system: SARS-CoV-2
Assay: microbe, parasite or virus in culture
Conditions: Severe acute respiratory syndrome coronavirus 2, Vero C1008, 48 h

Structure (SMILES)	IC50	IC50 (read-out: pIC50 (converted))
C#C[C@]1(O)CCC2C3CCC4=CC(=O)CCC4C3CCC21CC (stereo not given in full)	> 20 µM	> 20 µM
CCOCC(O)COc1ccc(NC(=O)CC[S+](C)C)cc1 (stereo not given)	> 20 µM	> 20 µM
CC(=O)OCC(=O)C1CCC2C3CC=C4CC(O)CCC4(C)C3CCC12C (stereo not given)	> 20 µM	> 20 µM
O=c1cc(-c2ccc(O)cc2)oc2c(C3O[C@H](CO)[C@@H](O)[C@H](O)[C@H]3O)c(O)cc(O)c12 (stereo not given in full)	> 20 µM	> 20 µM
CN1CC(=O)N2[C@@H](c3ccc4c(c3)OCO4)c3[nH]c4ccccc4c3C[C@@H]2C1=O	> 20 µM	> 20 µM
N=C(N)NCCNS(=O)(=O)c1cccc2cnccc12	> 20 µM	> 20 µM
CCN(CC)CCSC(=O)C(c1ccccc1)c1ccccc1	> 20 µM	> 20 µM
C(#CCN1CCCC1)CN1CCCC1	> 20 µM	> 20 µM
Nc1ccc(S(=O)(=O)O)cc1	> 20 µM	> 20 µM
COc1ccc2c3c1OC1C(O)C=CC4C(C2)[N+](C)(C)CCC341 (stereo not given)	> 20 µM	> 20 µM
CN1CCCN=C1/C=C/c1cccs1	> 20 µM	> 20 µM
COCCCOc1cc(C[C@@H](C[C@H](N)[C@@H](O)C[C@H](C(=O)NCC(C)(C)C(N)=O)C(C)C)C(C)C)ccc1OC	> 20 µM	> 20 µM
Nc1nncs1	> 20 µM	> 20 µM
COc1ccc2cc1Oc1cc3c(cc1OC)CC[N+](C)(C)C3Cc1ccc(cc1)Oc1c(OC)c(OC)cc3c1C(C2)[N+](C)(C)CC3 (stereo not given)	> 20 µM	> 20 µM
Cc1cc(/C=C\C#N)cc(C)c1Nc1ccnc(Nc2ccc(C#N)cc2)n1	> 20 µM	> 20 µM
CC1(C(=O)O)CCC2(C)CCC3(C)C(=CC(=O)C4C5(C)CCC(O)C(C)(C)C5CCC43C)C2C1 (stereo not given)	> 20 µM	> 20 µM
COc1cc2c(cc1OC)C1Cc3ccc(OC)c(OC)c3CN1CC2 (stereo not given)	> 20 µM	> 20 µM
CC(C)(C)C(=O)Oc1ccc2c(c1)O[C@H](c1ccc(OCCN3CCCCC3)cc1)C1=C2COc2cc(OC(=O)C(C)(C)C)ccc21	> 20 µM	> 20 µM
Nc1nc(=O)n([C@@H]2O[C@H](CO)[C@@H](O)[C@H]2F)cc1I	> 20 µM	> 20 µM
CC(=O)NS(=O)(=O)c1ccc(NC(=O)c2ccccc2C(=O)O)cc1	> 20 µM	> 20 µM

Structure (SMILES)	IC50	IC50 (read-out: pIC50 (converted))
C=C(C)CC1(CC)C(=O)NC(=S)NC1=O	> 20 µM	> 20 µM
C[C@]1(COc2ccc(N3CCC(Oc4ccc(OC(F)(F)F)cc4)CC3)cc2)Cn2cc([N+](=O)[O-])nc2O1	> 20 µM	> 20 µM
Cc1cn(C2CC(N=[N+]=[N-])C(CO)O2)c(=O)nc1N (stereo not given)	> 20 µM	> 20 µM
N=C(N)c1ccc(CNC(=O)[C@@H]2CCN2C(=O)[C@H](NCC(=O)O)C2CCCCC2)cc1	> 20 µM	> 20 µM
CC(C)c1ccc2c(c1)c(SC(C)(C)C)c(CC(C)(C)C(=O)O)n2Cc1ccc(Cl)cc1	> 20 µM	> 20 µM
CCC(=O)OC1CCC2C3CCC4=CC(=O)CCC4(C)C3CCC12C (stereo not given)	> 20 µM	> 20 µM
CC(N)C(O)c1cccc(O)c1 (stereo not given)	> 20 µM	> 20 µM
NC(COCc1ccccc1)C(=O)O (stereo not given)	> 20 µM	> 20 µM
CSc1ccc2ncn(/C=C/C(=O)O)c(=O)c2c1	> 20 µM	> 20 µM
Cc1c(-c2ccnn2C)cc(C(=O)NCc2ccc(S(C)(=O)=O)cn2)c(=O)n1-c1cccc(C(F)(F)F)c1	> 20 µM	> 20 µM
CN1C(=O)N(c2cc(Cl)cc(Cl)c2)C(=O)[C@@]1(C)Cc1ccc(Br)cc1	> 20 µM	> 20 µM
C[C@H]1c2nnn(-c3ncc(F)cn3)c2CCN1C(=O)c1cccc(C(F)(F)F)c1Cl	> 20 µM	> 20 µM
CN1CC[C@@H](c2c(O)cc(O)c3c(=O)cc(-c4ccccc4Cl)oc23)[C@@H]1CO	> 20 µM	> 20 µM
OCC(O)C(O)CO (stereo not given)	> 20 µM	> 20 µM
O[C@](Cn1cncn1)(Cn1cnc(/C=C/c2ccc(OCC(F)(F)C(F)F)cc2)n1)c1ccc(F)cc1F	> 20 µM	> 20 µM
CCOC(=O)C1=C(CN2CCOCC2)NC(c2nccs2)=N[C@@H]1c1ccc(F)cc1Br	> 20 µM	> 20 µM
O=C(OCCN1CCCCCC1)C(c1ccsc1)C1CCCCC1 (stereo not given)	> 20 µM	> 20 µM
C=CCN1CC[C@]23CCCCC2[C@H]1Cc1ccc(O)cc13 (stereo not given in full)	> 20 µM	> 20 µM
c1cc2c(cc1C1CCCCC1)c1c3n2CCNC3CCC1 (stereo not given)	> 20 µM	> 20 µM
CC(C(=O)Nc1ccc(Cl)cc1)[C@H]1CC[C@@H](c2ccnc3ccc(F)cc32)CC1 (stereo not given in full)	> 20 µM	> 20 µM
